Test results reported in patent EP4796130A1, “ANTI-TISSUE FACTOR ANTIBODY-DRUG CONJUGATE COMPRISING CAMPTOTHECIN DERIVATIVE” (Celltrion, Inc., priority 2023, dated 2025).
Values joined by “and” are separate entries in the source; they are usually repeats but may differ in a detail not shown here. Equal entries are not always repeated.

Experiments:
[1] = tested on: HPAFII (human pancreatic cancer xenograft model); experiment: In vivo antitumor efficacy, HPAFII xenograft model; design: species or system CB17 SCID mice; conditions: for Tumor Volume / Tumor Weights on Day 28: mean ± SEM; for T/Cweight / TGI: day 28 vs control group G1; for T/C: tumor volume on day 28 vs control group G1
[2] = tested on: MCF-7 (a breast cancer cell line); type: cell-based; conditions: 6 days incubation
[3] = tested on: KYSE520 (human esophageal cancer xenograft model); experiment: In vivo antitumor efficacy, KYSE520 xenograft model; design: species or system BALB/c nude mice; conditions: for Tumor Volume / Tumor Weights on Day 35: mean ± SEM; for T/Cweight / TGI: day 35 vs control group G1; for T/C: tumor volume on day 35 vs control group G1
[4] = one mouse in G5 (3 mg/kg i.v. QW x 3 weeks); day 18 after start of treatment; autopsied, no abnormalities found
Excerpt: Animal body weights were regularly monitored as an indirect measure of toxicity. […]

Tivdak: ADC in which MMAE is conjugated to Tisotumab; purchased from Jupiter Research Service LLC; DAR 4
Tumor Volume ([1]; 0.3 mg/kg i.v. QW × 3, day 0): 235 ± 17 mm^3
Tumor Volume ([1]; 0.3 mg/kg i.v. QW × 3, day 4): 313 ± 34 mm^3
Tumor Volume ([1]; 0.3 mg/kg i.v. QW × 3, day 7): 361 ± 49 mm^3
Tumor Volume ([1]; 0.3 mg/kg i.v. QW × 3, day 11): 476 ± 64 mm^3
Tumor Volume ([1]; 0.3 mg/kg i.v. QW × 3, day 14): 576 ± 69 mm^3
Tumor Volume ([1]; 0.3 mg/kg i.v. QW × 3, day 18): 737 ± 91 mm^3
Tumor Volume ([1]; 0.3 mg/kg i.v. QW × 3, day 21): 934 ± 113 mm^3
Tumor Volume ([1]; 0.3 mg/kg i.v. QW × 3, day 25): 1,219 ± 141 mm^3
Tumor Volume ([1]; 0.3 mg/kg i.v. QW × 3, day 28): 1,607 ± 144 mm^3
T/Cweight ([1]; 0.3 mg/kg i.v. QW × 3): 68.36%
TGI ([1]; 0.3 mg/kg i.v. QW × 3): 35.24%
Tumor Weights on Day 28 ([1]; 0.3 mg/kg i.v. QW × 3): 1.461 ± 0.146 g
T/C ([1]; 0.3 mg/kg i.v. QW × 3): 68.29%
Tumor Volume ([1]; 1 mg/kg i.v. QW × 1, day 0): 235 ± 17 mm^3
Tumor Volume ([1]; 1 mg/kg i.v. QW × 1, day 4): 217 ± 16 mm^3
Tumor Volume ([1]; 1 mg/kg i.v. QW × 1, day 7): 141 ± 16 mm^3
Tumor Volume ([1]; 1 mg/kg i.v. QW × 1, day 11): 87 ± 9 mm^3
Tumor Volume ([1]; 1 mg/kg i.v. QW × 1, day 14): 103 ± 14 mm^3
Tumor Volume ([1]; 1 mg/kg i.v. QW × 1, day 18): 161 ± 31 mm^3
Tumor Volume ([1]; 1 mg/kg i.v. QW × 1, day 21): 213 ± 34 mm^3
Tumor Volume ([1]; 1 mg/kg i.v. QW × 1, day 25): 344 ± 49 mm^3
Tumor Volume ([1]; 1 mg/kg i.v. QW × 1, day 28): 486 mm^3 and 486 ± 73 mm^3
T/Cweight ([1]; 1 mg/kg i.v. QW × 1): 21.23%
TGI ([1]; 1 mg/kg i.v. QW × 1): 88.15%
Tumor Weights on Day 28 ([1]; 1 mg/kg i.v. QW × 1): 0.454 ± 0.088 g
T/C ([1]; 1 mg/kg i.v. QW × 1): 20.67%
Tumor Volume ([1]; 1 mg/kg i.v. QW × 3, day 0): 235 ± 17 mm^3
Tumor Volume ([1]; 1 mg/kg i.v. QW × 3, day 4): 190 ± 12 mm^3
Tumor Volume ([1]; 1 mg/kg i.v. QW × 3, day 7): 124 ± 11 mm^3
Tumor Volume ([1]; 1 mg/kg i.v. QW × 3, day 11): 85 ± 9 mm^3
Tumor Volume ([1]; 1 mg/kg i.v. QW × 3, day 14): 70 ± 8 mm^3
Tumor Volume ([1]; 1 mg/kg i.v. QW × 3, day 18): 54 ± 6 mm^3
Tumor Volume ([1]; 1 mg/kg i.v. QW × 3, day 21): 40 ± 4 mm^3
Tumor Volume ([1]; 1 mg/kg i.v. QW × 3, day 25): 33 ± 4 mm^3
Tumor Volume ([1]; 1 mg/kg i.v. QW × 3, day 28): 26 mm^3 and 26 ± 3 mm^3
T/Cweight ([1]; 1 mg/kg i.v. QW × 3): 1.03%
TGI ([1]; 1 mg/kg i.v. QW × 3): 109.91%
Tumor Weights on Day 28 ([1]; 1 mg/kg i.v. QW × 3): 0.022 ± 0.003 g
T/C ([1]; 1 mg/kg i.v. QW × 3): 1.09%
Tumor Volume ([1]; 3 mg/kg i.v. QW × 1, day 0): 235 ± 17 mm^3
Tumor Volume ([1]; 3 mg/kg i.v. QW × 1, day 4): 216 ± 19 mm^3
Tumor Volume ([1]; 3 mg/kg i.v. QW × 1, day 7): 128 ± 10 mm^3
Tumor Volume ([1]; 3 mg/kg i.v. QW × 1, day 11): 69 ± 8 mm^3
Tumor Volume ([1]; 3 mg/kg i.v. QW × 1, day 14): 56 ± 4 mm^3
Tumor Volume ([1]; 3 mg/kg i.v. QW × 1, day 18): 39 ± 3 mm^3
Tumor Volume ([1]; 3 mg/kg i.v. QW × 1, day 21): 30 ± 2 mm^3
Tumor Volume ([1]; 3 mg/kg i.v. QW × 1, day 25): 26 ± 2 mm^3
Tumor Volume ([1]; 3 mg/kg i.v. QW × 1, day 28): 19 mm^3 and 19 ± 1 mm^3
T/Cweight ([1]; 3 mg/kg i.v. QW × 1): 0.54%
TGI ([1]; 3 mg/kg i.v. QW × 1): 110.22%
Tumor Weights on Day 28 ([1]; 3 mg/kg i.v. QW × 1): 0.012 ± 0.001 g
T/C ([1]; 3 mg/kg i.v. QW × 1): 0.80%
IC50 [2]: 442 nM
Tumor Volume ([3]; 1 mg/kg i.v. QW x 3 weeks, day 0): 175 ± 8 mm^3
Tumor Volume ([3]; 1 mg/kg i.v. QW x 3 weeks, day 4): 279 ± 20 mm^3
Tumor Volume ([3]; 1 mg/kg i.v. QW x 3 weeks, day 7): 360 ± 29 mm^3
Tumor Volume ([3]; 1 mg/kg i.v. QW x 3 weeks, day 11): 489 ± 37 mm^3
Tumor Volume ([3]; 1 mg/kg i.v. QW x 3 weeks, day 14): 672 ± 51 mm^3
Tumor Volume ([3]; 1 mg/kg i.v. QW x 3 weeks, day 18): 771 ± 64 mm^3
Tumor Volume ([3]; 1 mg/kg i.v. QW x 3 weeks, day 21): 865 ± 75 mm^3
Tumor Volume ([3]; 1 mg/kg i.v. QW x 3 weeks, day 25): 1,168 ± 101 mm^3
Tumor Volume ([3]; 1 mg/kg i.v. QW x 3 weeks, day 28): 1,497 ± 121 mm^3
Tumor Volume ([3]; 1 mg/kg i.v. QW x 3 weeks, day 32): 1,634 ± 126 mm^3
Tumor Volume ([3]; 1 mg/kg i.v. QW x 3 weeks, day 35): 1,893 ± 166 mm^3
T/Cweight ([3]; 1 mg/kg i.v. QW x 3 weeks): 86.67%
TGI ([3]; 1 mg/kg i.v. QW x 3 weeks): 13.03%
Tumor Weights on Day 35 ([3]; 1 mg/kg i.v. QW x 3 weeks): 1.869 ± 0.138 g
T/C ([3]; 1 mg/kg i.v. QW x 3 weeks): 88.03%
Tumor Volume ([3]; 3 mg/kg i.v. QW x 3 weeks, day 0): 175 ± 8 mm^3
Tumor Volume ([3]; 3 mg/kg i.v. QW x 3 weeks, day 4): 241 ± 23 mm^3
Tumor Volume ([3]; 3 mg/kg i.v. QW x 3 weeks, day 7): 279 ± 24 mm^3
Tumor Volume ([3]; 3 mg/kg i.v. QW x 3 weeks, day 11): 281 ± 31 mm^3
Tumor Volume ([3]; 3 mg/kg i.v. QW x 3 weeks, day 14): 270 ± 31 mm^3
Tumor Volume ([3]; 3 mg/kg i.v. QW x 3 weeks, day 18): 174 ± 17 mm^3
Tumor Volume ([3]; 3 mg/kg i.v. QW x 3 weeks, day 21): 154 ± 17 (n = 9)^c mm^3
Tumor Volume ([3]; 3 mg/kg i.v. QW x 3 weeks, day 25): 142 ± 15(n = 9) mm^3
Tumor Volume ([3]; 3 mg/kg i.v. QW x 3 weeks, day 28): 129 ± 16 (n = 9) mm^3
Tumor Volume ([3]; 3 mg/kg i.v. QW x 3 weeks, day 32): 115 ± 16(n = 9) mm^3
Tumor Volume ([3]; 3 mg/kg i.v. QW x 3 weeks, day 35): 99 mm^3 and 99 ± 14 (n = 9) mm^3 and 99 ± 14 mm^3
T/Cweight ([3]; 3 mg/kg i.v. QW x 3 weeks): 4.12%
TGI ([3]; 3 mg/kg i.v. QW x 3 weeks): 103.89%
Tumor Weights on Day 35 ([3]; 3 mg/kg i.v. QW x 3 weeks): 0.089 ± 0.013 g
T/C ([3]; 3 mg/kg i.v. QW x 3 weeks): 4.58%
Tumor Volume ([3]; 10 mg/kg i.v. QW x 3 weeks, day 0): 175 ± 8 mm^3
Tumor Volume ([3]; 10 mg/kg i.v. QW x 3 weeks, day 4): 243 ± 22 mm^3
Tumor Volume ([3]; 10 mg/kg i.v. QW x 3 weeks, day 7): 259 ± 24 mm^3
Tumor Volume ([3]; 10 mg/kg i.v. QW x 3 weeks, day 11): 234 ± 23 mm^3
Tumor Volume ([3]; 10 mg/kg i.v. QW x 3 weeks, day 14): 196 ± 16 mm^3
Tumor Volume ([3]; 10 mg/kg i.v. QW x 3 weeks, day 18): 122 ± 11 mm^3
Tumor Volume ([3]; 10 mg/kg i.v. QW x 3 weeks, day 21): 101 ± 7 mm^3
Tumor Volume ([3]; 10 mg/kg i.v. QW x 3 weeks, day 25): 88 ± 7 mm^3
Tumor Volume ([3]; 10 mg/kg i.v. QW x 3 weeks, day 28): 69 ± 5 mm^3
Tumor Volume ([3]; 10 mg/kg i.v. QW x 3 weeks, day 32): 58 ± 5 mm^3
Tumor Volume ([3]; 10 mg/kg i.v. QW x 3 weeks, day 35): 45 mm^3 and 45 ± 6 mm^3
T/Cweight ([3]; 10 mg/kg i.v. QW x 3 weeks): 1.93%
TGI ([3]; 10 mg/kg i.v. QW x 3 weeks): 106.62%
Tumor Weights on Day 35 ([3]; 10 mg/kg i.v. QW x 3 weeks): 0.042 ± 0.004 g
T/C ([3]; 10 mg/kg i.v. QW x 3 weeks): 2.08%
body weight loss [4]: more than 20%
